Measured values: patent publication US9572792B2, “Coumarin compounds as receptor modulators with therapeutic utility” (Allergan, Inc., priority 2009, dated 2017)

The molecules below were run against human S1P1 receptor (Homo sapiens (Human), UniProt P21453) (assay: GTP γ35S binding assay). Settings: S1P1 receptor from GTP γ35S; membranes of cells stably expressing the S1P1 receptor.
Assay type: biochemical
Procedure: The S1P1 activity of the compounds according to the invention, were tested using the GTP γ^35S binding assay. The compounds were assessed for their ability to activate or block activation of the human S1P1 receptor in cells stably expressing the S1P1 receptor.
GTP γ^35S binding was measured in the medium containing (mM) HEPES 25, pH 7.4, MgCl2 10, NaCl 100, dithiothreitol 0.5, digitonin 0.003%, 0.2 nM GTP γ^35S, and 5 μg membrane protein in a volume of 150 μl. Test compounds were included in the concentration range from 0.08 to 5,000 nM unless indicated otherwise. Membranes were incubated with 100 μM 5′-adenylylimidodiphosphate for 30 min, and subsequently with 10 μM GDP for 10 min on ice. Drug solutions and membrane were mixed, and then reactions were initiated by adding GTP γ^35S and continued for 30 min at 25° C. Reaction mixtures were filtered over Whatman GF/B filters under vacuum, and washed three times with 3 mL of ice-cold buffer (HEPES 25, pH7.4, MgCl2 10 and NaCl 100). Filters were dried and mixed with scintillant, and counted for ^35S activity using a 8-counter. Agonist-induced GTP γ^35S binding was obtained by subtracting that in the absence of agonist. Binding data were analyzed using a non-linear regression method. In case of antagonist assay, the reaction mixture contained 10 nM S1P in the presence of test antagonist at concentrations ranging from 0.08 to 5000 nM.
S1P1 receptor from GTP γ^35S: nM, (EC50),

human S1P1 receptor, sequence (P21453 whole entry): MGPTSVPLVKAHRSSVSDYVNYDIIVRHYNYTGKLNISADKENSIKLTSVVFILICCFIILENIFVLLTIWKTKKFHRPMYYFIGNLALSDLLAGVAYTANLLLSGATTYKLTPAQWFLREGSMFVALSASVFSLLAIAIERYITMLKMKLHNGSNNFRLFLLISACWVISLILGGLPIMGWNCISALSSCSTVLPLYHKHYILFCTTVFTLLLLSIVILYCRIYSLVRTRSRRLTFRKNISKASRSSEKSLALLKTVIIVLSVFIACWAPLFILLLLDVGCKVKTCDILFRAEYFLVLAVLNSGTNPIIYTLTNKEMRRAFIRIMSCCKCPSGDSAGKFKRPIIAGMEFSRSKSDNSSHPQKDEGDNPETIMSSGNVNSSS

**Q.** With `CCCc1c(OC)ccc2cc(C(=O)Nc3ccncc3Br)c(=O)oc12` [Compound 6, N-(3-bromopyridin-4-yl)-7-methoxy-2-oxo-8-propyl-2H-chromene-3-carboxamide] as the molecule, how does the EC50 read?
**A.** 19 nM

**Q.** With `CCCc1c(OC)ccc2cc(C(=O)Nc3ccccc3Br)c(=O)oc12` [Compound 5, N-(2-bromophenyl)-7-methoxy-2-oxo-8-propyl-2H-chromene-3-carboxamide] as the molecule, how does the EC50 read?
**A.** 26.4 nM

**Q.** With `CCCc1c(OC)ccc2cc(C(=O)Nc3ccc(S(N)(=O)=O)cc3Br)c(=O)oc12` [Compound 38, N-[4-(aminosulfonyl)-2-bromophenyl]-7-methoxy-2-oxo-8-propyl-2H-chromene-3-carboxamide] as the molecule, how does the EC50 read?
**A.** 3.5 nM

**Q.** Which EC50 does the source give for `CCCc1c(OC)ccc2cc(C(=O)Nc3ccc(NC(=O)[C@H](N)CCC(=O)O)cc3C)c(=O)oc12` [Compound 62, (4R)-4-amino-5-[(4-{[(7-methoxy-2-oxo-8-propyl-2H-chromen-3-yl)carbonyl]amino}-3-methylphenyl)amino]-5-oxopentanoic acid] here?
**A.** 3.1 nM
